Experimental data from patent US7256182B2, “Gene delivery compositions and methods” (priority 1997, dated 2007).

System: cardiac myocytes of acutely explanted rabbit heart
Assay: Adenovirus gene transfer in Langendorff-perfused explanted rabbit heart; β-galactosidase staining of isolated myocytes
Procedure: Adenovirus vectors. Adβgal contained the E. coli lac Z gene driven by the human cytomegalovirus (CMV) immediate early promoter. Virus stocks were expanded as previously described in Graham F L, Prevec L: Manipulation of adenovirus vectors, in Murray E J (ed): Methods in molecular biology. Clifton, N.J., Humana, 1991, pp 109-128, aliquoted in small volumes, and stored in phosphate-buffered saline (PBS) with 10% sucrose at −80° C. Viral titers were determined by the average of two plaque assays performed using a traditional method as described in Methods in molecular biology, supra.
Statistical Analysis. Unless otherwise stated, all experiments were performed in triplicate and the data are presented as mean ±s.d. Statistical significance was determined at the 5% level using the unpaired Student's t-test.
Baseline conditions for the Langendorff-perfusion experiments included a coronary flow rate of 30 ml/min, and perfusion with Krebs solution containing 1.0 mmol/L Ca^2+ and 1.0×10^8 pfu/ml of Adβgal at 37° C. All infections occurred in Krebs solution.
Acutely explanted rabbit heart (New Zealand White; 2-3 kg total body weight) were employed for gene transfer tests of this Example 1 and the following Example 2. The rabbits received heparin anticoagulation (1000 units IV) prior to pentobarbital (50 mg/kg IV). […]

NCCc1c[nH]c2ccc(O)cc12 [serotonin]
change in percentage of infected myocytes by supplemental agent (agent perfused to enhance microvascular permeability, versus baseline): significant increase
percentage of infected myocytes (pretreatment 500 ml normal Krebs with 10^-5 M agent over 15 minutes, agent also present during Adβgal infection): 77.8±2.3%
